How the values were obtained:
CHK [1] = test: CHK phosphorylation of Flag-tagged β-synuclein in transfected HEK293T cells; assay type: cell-based; details: HEK293T co-transfected with CHK; pervanadate-treated; Western blot
[2] = Circular dichroism analysis of secondary structure; assay type: physicochemical; details: aqueous solution; SFig. 6
CHK-His6 = biological target: T1, CHK-His6 (Rattus norvegicus, UniProt P41243); test: Kinetic analysis of phosphorylation of peptide substrates by CHK-His6; assay type: biochemical
T1 sequence (P41243 1-467): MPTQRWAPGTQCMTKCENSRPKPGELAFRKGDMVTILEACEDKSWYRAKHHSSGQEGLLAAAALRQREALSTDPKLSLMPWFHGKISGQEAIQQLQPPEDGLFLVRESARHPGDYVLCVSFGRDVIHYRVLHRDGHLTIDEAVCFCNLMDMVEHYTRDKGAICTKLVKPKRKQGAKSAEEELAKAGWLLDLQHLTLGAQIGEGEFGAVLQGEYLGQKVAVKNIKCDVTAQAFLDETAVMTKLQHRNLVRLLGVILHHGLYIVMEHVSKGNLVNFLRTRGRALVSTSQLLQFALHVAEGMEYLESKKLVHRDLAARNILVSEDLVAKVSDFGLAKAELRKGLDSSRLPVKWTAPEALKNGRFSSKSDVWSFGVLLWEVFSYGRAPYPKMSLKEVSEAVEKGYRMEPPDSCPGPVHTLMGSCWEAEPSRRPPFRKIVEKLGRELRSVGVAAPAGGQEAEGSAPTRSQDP

CHK [3] = test: CHK phosphorylation of peptides derived from α- and β-synucleins; assay type: biochemical; details: 30 °C; for reduction in CHK phosphorylation rate: vs β-syn(112–134), Fig. 2B, P81 filter assay, [γ-^32P]ATP
transgenic mice = details: mouse, in vivo; cited from earlier work
CHK [4] = test: Phosphorylation of α- and β-synucleins by CHK; assay type: biochemical; details: for phosphate incorporated by CHK: reaction time 120 min, synuclein 0.56 μM, CHK 0.04 μM
CHK [5] = assay type: biochemical; details: higher than that of hsp90 (SFig. 4B)
[6] = CHK-His6 0.2 μM, substrate peptides 0–400 μM
[7] = CHK-His6 0.2 μM, substrate peptides 0–400 μM, Lineweaver-Burk plots
[8] = vs β-syn(112–134) and SFK-C-terminal peptide

Substance: Flag-[Y127F]β-synuclein: [Y127F]β-synuclein with the Flag tag attached at the N-terminus
- effect of Y127F on CHK-induced phosphorylation in cells (CHK [1]): reduced the level of CHK-induced phosphorylation

Substance: KKDPEERPTFEYLQSFTATEPQYQPGENL [SFK C-terminal Peptide, reference compound]
- secondary structure by CD [2]: random coil conformation
- kcat/KM (CHK-His6; [6]): 5.1×10^−4 μM^−1S^−1
- kcat (CHK-His6; [7]): 0.13 ± 0.003 S^−1

Substance: KKKK-MEPEGESYEDPPQEEYQEYEPEA [β-syn(112–134)]
- secondary structure by CD [2]: random coil conformation
- kcat/KM (CHK-His6; [6]): 6.7×10^−4 μM^−1S^−1
- kcat (CHK-His6; [7]): 0.17 ± 0.01 S^−1
- CHK phosphorylation efficiency relative to α-syn peptide (CHK [3]; higher than α-syn(117–140) peptide, CHK 0.11 μM, peptide 20 μM, time course (Fig. 3B)): ~ 10 fold

Substance: KKK–GESFEAQDEGIYWNVGPEA [[D9A]CHK-optimal peptide]
- kcat/KM (CHK-His6; [6]): 111×10^−4 μM^−1S^−1
- kcat (CHK-His6; [7]): 1.27 ± 0.06 S^−1
- effect of D9A substitution on KM (CHK-His6; vs CHK-optimal peptide): small increase in KM
- effect of D9A substitution on kcat (CHK-His6; vs CHK-optimal peptide): slight reduction of kcat

Substance: KKK–GESFEDQDEGIYWNVGPEA [CHK-optimal peptide]
- kcat/KM (CHK-His6; [6]): 140×10^−4 μM^−1S^−1
- kcat (CHK-His6; [7]): 1.45 ± 0.05 S^−1
- kcat (CHK-His6; CHK-optimal peptide): 1.45 s⁻¹
- kcat relative to β-syn(112–134) and SFK-C-terminal peptide (CHK-His6; [8]): approximately ten-fold higher
- phosphorylation efficiency in comparison (CHK-His6; [8]): phosphorylated with an efficiency higher than those of β-syn(112–134) and SFK-C-terminal peptide

Substance: [P123H] β-synuclein: β-synuclein mutant, proline to histidine substitution at position 123
- phenotype of transgenic mice overexpressing the mutant (transgenic mice): progressive neurodegeneration

Substance: [Y119F, Y130F]β-syn(112–134): contains Y127 as the only tyrosine
- reduction in CHK phosphorylation rate (CHK [3]): 30%

Substance: [Y127F] β-syn(112–134): Y127 is replaced by phenylalanine
- reduction in CHK phosphorylation rate (CHK [3]): 84%

Substance: α-synuclein
- phosphate incorporated by CHK (CHK [4]): 0.024 pmol
- CHK substrate quality in comparison (CHK [4]; α-synuclein vs β-synuclein): much poorer substrate of CHK compared to β-synuclein

Substance: β-synuclein: recombinant β-synuclein (GST-β-synuclein in Fig. 5); potential CHK substrate in rat brain cytosol
- phosphate incorporated by CHK (CHK [4]): ~ 0.9 pmol
- rate of CHK phosphorylation relative to hsp90 (CHK [5]): ~ 23 fold
